Test system: antibody recognizing the core peptide of the hinge region in IgA1 (IgG class, serum of patient with IgA nephropathy)
Test: Assay of inhibitory activities of various synthetic peptides (enzyme immunoassay: patient serum pre-incubated with peptide, then reacted with immobilized IgA1 hinge core peptide-BSA antigen)
Type: binding
Details: synthetic peptide 1 μg/ml in PBS mixed 1:1 with 1/50 diluted serum, room temperature 3 hours; peroxidase labeled anti-human IgG; absorbancy at 490 nm
Experimental: Antigen was prepared according to the method described in the above example 1 (1).
The above antigen solution was dissolved to […] in 0.015 M carbonate buffer (pH 9.6) and each 100 μl was added in each well of the 96 well microtiter plate (A Flow General Co., Linbro/Titertek EIA Microtitration plate, Cat. No. 76-381-04), then incubated at 4° C. overnight (standing culture).
PBS (0.01 M phosphate buffer, pH 7.5 containing 0.15 M NaCl) solution (200 μl) containing 1% bovine serum albumin (fraction V, purchased from SIGMA Inc.) was added in each well, and incubated at 4° C. overnight. Each well was washed with 200 μl of PBS. The antigen was immobilized.
Synthetic peptide [the core peptide constructing a part of the hinge region in IgA1 as follows:
was dissolved to 1 μg/ml with PBS. The above diluted serum of patient with IgA nephropathy and the solution of synthetic peptide were mixed in equal volume (1:1). Also the above diluted serum of patient with IgA nephropathy and PBS without containing synthetic peptide (hereinafter designated as blank solution) were mixed in equal volume (1:1). These mixtures were incubated at room temperature for 3 hours.
After termination of the incubation, each solution (100 μl) was added in each well, which was provided with the antigen immobilized therein, of the 96 well microtiter plate and incubated at room temperature for 3 hours.
Each well was washed three times with 200 μl of PBS containing 0.1% bovine serum albumin, 0.05% Tween-20 (hereinafter designated as PS/BSA/Tween).
A solution (100 μl) of peroxidase labeled anti-human IgG (purchased from Organon Tecknika Inc.), which was diluted to 1/200 with PBS, was added in each well.
After incubation at room temperature for 1 hour, each well was washed three times with PS/BSA/Tween (200 μl).
Coloring agent (100 μl)(orthophenylenediamine 20 mg, sodium […]·12H2O 1.795 g, citric acid 0.525 g, and hydrogen peroxide 15 μl were dissolved in water 50 ml) was added in each well, and incubated at room temperature for 1 hour.
After the incubation was terminated, absorbency at 490 nm was measured using microplate reader (Bio-Red Inc., Microplate reader Model 450).

Substance: Leu Lys Pro Asp Pro (LKPDP; listed as Bovine sp.) [core peptide constructing a part of the bovine serum albumin, reference compound]
- inhibitory action on the reaction of patient serum with the core peptide of the hinge region in IgA1: no inhibitory action on the reaction was observed

Substance: Leu Pro Pro Leu Thr (LPPLT; listed as Bovine sp.) [core peptide constructing a part of the bovine serum albumin, reference compound]
- inhibitory action on the reaction of patient serum with the core peptide of the hinge region in IgA1: no inhibitory action on the reaction was observed

Substance: Pro Ser Pro Ser Cys (PSPSC) [core peptide constructing a part of the hinge region in IgA1]
- inhibitory action on the reaction of patient serum with the core peptide of the hinge region in IgA1: inhibitory action on the reaction was observed

Substance: Pro Ser Pro Ser Thr (PSPST) [core peptide constructing a part of the hinge region in IgA1]
- inhibitory action on the reaction of patient serum with the core peptide of the hinge region in IgA1: inhibitory action on the reaction was observed

Substance: Pro Ser Thr Pro Pro (PSTPP) [core peptide constructing a part of the hinge region in IgA1]
- inhibitory action on the reaction of patient serum with the core peptide of the hinge region in IgA1: inhibitory action on the reaction was observed

Substance: Pro Thr Pro Ser Pro (PTPSP) [core peptide constructing a part of the hinge region in IgA1]
- inhibitory action on the reaction of patient serum with the core peptide of the hinge region in IgA1: inhibitory action on the reaction was observed

Substance: Pro Val Pro Ser Thr (PVPST) [core peptide constructing a part of the hinge region in IgA1]
- inhibitory action on the reaction of patient serum with the core peptide of the hinge region in IgA1: inhibitory action on the reaction was observed

Substance: Ser Pro Asp Leu Pro (SPDLP; listed as Bovine sp.) [core peptide constructing a part of the bovine serum albumin, reference compound]
- inhibitory action on the reaction of patient serum with the core peptide of the hinge region in IgA1: no inhibitory action on the reaction was observed

Substance: Thr Pro Asp Glu Thr (TPDET; listed as Bovine sp.) [core peptide constructing a part of the bovine serum albumin, reference compound]
- inhibitory action on the reaction of patient serum with the core peptide of the hinge region in IgA1: no inhibitory action on the reaction was observed

Substance: Thr Pro Pro Thr Pro (TPPTP) [core peptide constructing a part of the hinge region in IgA1]
- inhibitory action on the reaction of patient serum with the core peptide of the hinge region in IgA1: inhibitory action on the reaction was observed

Substance: Thr Pro Val Glu Ser (TPVES; listed as Bovine sp.) [core peptide constructing a part of the bovine serum albumin, reference compound]
- inhibitory action on the reaction of patient serum with the core peptide of the hinge region in IgA1: no inhibitory action on the reaction was observed

Source: patent US6429024B1, “Test method for IgA nephropathy” (Asahi Kasei Kabushiki Kaisha, priority 1998, dated 2002)
